The assay deals with sarcosine oxidase. The assay is described as follows: Influence of metal ions (metal chloride salts) on sarcosine oxidase activity. The settings on record: sarcosine oxidase activity with metal chloride salt, final concentration 2 mM, None = 100. It counts as biochemical. The procedure: As shown in the following Table 1, activity of the sarcosine oxidase was greatly influenced by metal ions. Since metal ions were inevitably contained in the sample, EDTA was added at 0.01 to 0.02 g/dL to chelate the metal ions and to prevent activity of the sarcosine oxidase from decreasing due to the metal ions. In this case, when an amount of EDTA added was small, the metal ions were not sufficiently removed. […] In the present example, EDTA4NA was used. However, another substance that can chelate the metal ions could be used. Then, AHMT serving as a chromogen was dissolved at 20 to 50 mM. In this case, when an amount of the reagent added was small, there was no difference in color development between specimens of an intermediate concentration and a high concentration. On the other hand, when an amount of the reagent added was large, discoloration was caused in a natural state, which caused a change in a product or a false positive result.
As shown in the following Table 2, activity of the sarcosine oxidase is greatly influenced by metal ions. When an excessive amount of metal ions was contained in the sample, EDTA was added at 0.01 to 0.02 g/dL in order to chelate and remove the metal ions and prevent activity of the sarcosine oxidase from decreasing due to the metal ions. That is, EDTA serves as a metal adsorber and facilitates activation of the enzymes. In the present example, EDTA4NA was used. However, another substance that can chelate the metal ions could be used. When an amount of EDTA added was small, the metal ions were not sufficiently removed.

From patent US20160222432A1, “TEST STRIP USING FORMALDEHYDE OR PEROXIDE, FROM AMONG SARCOSINE METABOLITES, FOR DIAGNOSING PROSTATE CANCER, AND METHOD FOR DIAGNOSING PROSTATE CANCER USING SAME” (CSQUARE CO., LTD, priority 2013, published 2016) come the findings set out here.

Each structure is given as a SMILES string.

For the molecule `[Cl][Mn][Cl]` [Mn^2+], the “Relative activity (%)” value by setting is: (Table 1 (first example)) 63%; (Table 2 (second example)) 63%.
In the case of `[Cl][Cu][Cl]` [Cu^2+], the “Relative activity (%)” value (Table 1 (first example)) is 0% and the “Relative activity (%)” value (Table 2 (second example)) was determined as 0%.
With `[Cl][Fe][Cl]` [Fe^2+], the “Relative activity (%)” value is 66% (Table 1 (first example)) and 66% (Table 2 (second example)).
Turning to `[Cl-].[Cl-].[Zn+2]` [Zn^2+], the “Relative activity (%)” value by setting is: (Table 1 (first example)) 7%; (Table 2 (second example)) 7%.
On to `[Cl-].[Cl-].[Co+2]` [Co^2+], for which the “Relative activity (%)” value (Table 1 (first example)) stood at 52% and the “Relative activity (%)” value (Table 2 (second example)) worked out at 52%.
With `[Cl][Cd][Cl]` [Cd^2+], the “Relative activity (%)” value is, setting by setting: (Table 1 (first example)) 7%; (Table 2 (second example)) 7%.
For `[Cl][Hg][Cl]` [Hg^2+], the “Relative activity (%)” value reads like this: (Table 1 (first example)) 0%; (Table 2 (second example)) 0%.
Consider `[Cl][Ni][Cl]` [Ni^2+], for which the “Relative activity (%)” value (Table 1 (first example)) is recorded as 76% and the “Relative activity (%)” value (Table 2 (second example)) stood at 76%.
